We go through 45 compounds from patent US6355673B1, “Substituted diaminocarboxylic acids” (Aventis Pharma Deutschland GmbH, priority 1997, dated 2002).

Usually IC50 stands for the concentration at which inhibition is half-maximal. The low end stands for inhibition by little substance, the high end for a need for much substance.

The target of experiment [1] is T1, neutrophil collagenase (MMP-8) (Homo sapiens, UniProt P22894).
T1 construct: enzymatic activity of the catalytic domains of human stromelysin and of neutrophil collagenase; made in house
T1 sequence (P22894 100-262 limits assumed): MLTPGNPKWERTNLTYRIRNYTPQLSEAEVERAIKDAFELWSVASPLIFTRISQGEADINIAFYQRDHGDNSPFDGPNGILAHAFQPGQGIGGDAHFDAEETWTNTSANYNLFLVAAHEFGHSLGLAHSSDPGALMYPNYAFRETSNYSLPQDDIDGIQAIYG
Kind of experiment: Enzyme inhibition of the catalytic domain of neutrophil collagenase (fluorogenic substrate). As to conditions: 15 min preincubation, pH=6.5, fluorescence 328 nm (ex)/393 nm (em). In kind it is biochemical. Here is the method:
(§1) Preparation and determination of the enzymatic activity of the catalytic domains of human stromelysin and of neutrophil collagenase.
(§2) The enzymes stromelysin (MMP-3) and neutrophil collagenase (MMP-8) were prepared according to Ye et al. (Biochemistry; 31 (1992) pages 11231-11235). To measure the enzyme activity or the enzyme inhibitor action, 70 μl of buffer solution and 10 μl of enzyme solution are incubated for 15 min with 10 μl of a 10% strength (v/v) aqueous dimethyl sulfoxide solution, which optionally contains the enzyme inhibitor. After addition of 10 μl of a 10% strength (v/v) aqueous dimethyl sulfoxide solution which contains 1 mil/L of the substrates, the enzyme reaction is monitored by fluorescence spectroscopy (328 nm (ex)/393 nm(em)). The enzyme activity is shown as the extinction increase/min. The IC50 values listed in Table 2 are determined as those inhibitor concentrations which in each case lead to a 50% inhibition of the enzyme.
(§3) The buffer solution contains 0.05% Brij (Sigma, Deisenhofen, Germany) and also 0.1 mol/L tris/HCl, 0.1 mol/L NaCl, 0.01 mol/L CaCl2 and 0.1 mol/L piperazine-N,N′-bis(2-ethanesulfonic acid) (pH=6.5). The enzyme solution contains 5 μg/ml of one of the enzyme domains prepared according to Ye et al. The substrate solution contains 1 mil/L of the fluorogenic substrate (7-methoxycoumarin-4-yl)acetyl-Pro-Leu-Gly-Leu-3-(2′,4′-dinitrophenyl)-L-2,3-diaminopropionyl-Ala-Arg-NH2 (Bachem, Heidelberg, Germany).

Experiment [2] has as its target T2, stromelysin (MMP-3) (Homo sapiens, UniProt P08254).
T2 construct: enzymatic activity of the catalytic domains of human stromelysin and of neutrophil collagenase; made in house
Kind of experiment: Enzyme inhibition of the catalytic domain of human stromelysin (fluorogenic substrate). In kind it is biochemical. As to conditions: 15 min preincubation, pH=6.5, fluorescence 328 nm (ex)/393 nm (em). Here is the method: as §1, §2, §3

The structures appear in SMILES notation.

T2 sequence (P08254 100-272 limits assumed): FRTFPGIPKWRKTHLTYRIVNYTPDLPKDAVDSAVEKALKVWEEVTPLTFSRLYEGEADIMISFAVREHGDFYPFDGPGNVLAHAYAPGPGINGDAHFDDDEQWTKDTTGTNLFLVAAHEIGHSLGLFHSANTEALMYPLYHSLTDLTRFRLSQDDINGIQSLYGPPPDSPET

Consider `Cc1cc(C(=O)NCCC[C@H](NS(=O)(=O)c2ccc(-c3ccc(Cl)cc3)cc2)C(=O)O)ccc1[N+](=O)[O-]` [Example 138], for which the IC50 turned out to be 10 nM in experiment [1] and 30 nM in experiment [2].
The corresponding values for `CN(CCC[C@H](NS(=O)(=O)c1ccc(-c2ccc(Cl)cc2)cc1)C(=O)O)C(=O)C1CC1` [Example 144] are 3 nM and 10 nM.
The corresponding values for `CC(C)(C)CC(=O)NCCC[C@H](NS(=O)(=O)c1ccc(-c2ccc(Cl)cc2)cc1)C(=O)O` [Example 49] are 3 nM and 20 nM.
For the compound `O=C(NCCC[C@H](NS(=O)(=O)c1ccc(-c2ccc(Cl)cc2)cc1)C(=O)O)C1Cc2ccccc2N1` (stereo partly drawn) [Example 96], the values for the IC50 in experiment [1] and in experiment [2] were 6 nM and 20 nM, respectively.
The corresponding values for `CN(C)c1ccc(C(=O)NCCC[C@H](NS(=O)(=O)c2ccc(-c3ccc(Cl)cc3)cc2)C(=O)O)cc1` [Example 136] are 7 nM and 10 nM.
Turning to `O=C(NCCC[C@H](NS(=O)(=O)c1ccc(-c2ccc(Cl)cc2)cc1)C(=O)O)c1cccs1` [Example 122], the IC50 amounted to 2 nM in experiment [1] and 3 nM in experiment [2].
The corresponding values for `O=C(NCCC[C@H](NS(=O)(=O)c1ccc(-c2ccc(Cl)cc2)cc1)C(=O)O)c1ccccc1` [Example 117] are 2 nM and 9 nM.
For the compound `CCC(=O)NCCC[C@H](NS(=O)(=O)c1ccc(-c2ccc(Cl)cc2)cc1)C(=O)O` [Example 82], the IC50 in experiment [1] turned out to be 4 nM; in experiment [2] it was 20 nM.
The corresponding values for `O=C(/C=C/c1ccc(F)cc1)NCCC[C@H](NS(=O)(=O)c1ccc(-c2ccc(Cl)cc2)cc1)C(=O)O` [Example 131] are 5 nM and 20 nM.
The corresponding values for `O=C(NCCC[C@H](NS(=O)(=O)c1ccc(-c2ccc(Cl)cc2)cc1)C(=O)O)c1ccc(F)cc1` [Example 71] are 3 nM and 10 nM.
The corresponding values for `O=C(NCCC[C@H](NS(=O)(=O)c1ccc(-c2ccc(Cl)cc2)cc1)C(=O)O)c1ccc2[nH]nnc2c1` [Example 125] are 10 nM and 10 nM.
With `COc1cccc(C(=O)NCCC[C@H](NS(=O)(=O)c2ccc(-c3ccc(Cl)cc3)cc2)C(=O)O)c1` [Example 152], the results for the IC50 in experiment [1] and in experiment [2] were 10 nM and 60 nM, respectively.
Regarding `CC(C)(C)OC(=O)NCCC[C@H](NS(=O)(=O)c1ccc(-c2ccc(Cl)cc2)cc1)C(=O)O` [Example 14], the IC50 came to 3 nM in experiment [1] and 5 nM in experiment [2].
The corresponding values for `O=C(NCCC[C@H](NS(=O)(=O)c1ccc(-c2ccc(Cl)cc2)cc1)C(=O)O)c1ccc(OC(F)(F)F)cc1` [Example 105] are 10 nM and 40 nM.
The corresponding values for `O=C(NCCC[C@H](NS(=O)(=O)c1ccc(-c2ccc(Cl)cc2)cc1)C(=O)O)C1CSCN1` (stereo partly drawn) [Example 84] are 4 nM and 20 nM.
The corresponding values for `O=C(O)[C@H](CCCN1C(=O)c2ccc(Cl)cc2C1=O)NS(=O)(=O)c1ccc(-c2ccc(Cl)cc2)cc1` [Example 171] are 10 nM and 30 nM.
On to `O=C(O)[C@H](CCCn1sc2ccccc2c1=O)NS(=O)(=O)c1ccc(-c2ccc(Cl)cc2)cc1` [Example 114], for which the IC50 in experiment [1] worked out at 2 nM; in experiment [2] it was 5 nM.
The corresponding values for `O=C(NCCC[C@H](NS(=O)(=O)c1ccc(-c2ccc(Cl)cc2)cc1)C(=O)O)c1cccc(C(F)(F)F)c1` [Example 130] are 4 nM and 20 nM.
On to `CC(C)(C)OC(=O)NCCCC[C@@H](NS(=O)(=O)c1ccc(-c2ccc(Cl)cc2)cc1)C(=O)O` [Example 2, R-(4-Chlorobiphenylsulfonyl)-Lys(Boc)-OH], for which the IC50 in experiment [1] is 6 nM; in experiment [2], 20 nM.
The corresponding values for `O=C(NCCC[C@H](NS(=O)(=O)c1ccc(-c2ccc(Cl)cc2)cc1)C(=O)O)C1CC1` [Example 62] are 2 nM and 5 nM.
The corresponding values for `NC(=O)C1(C(=O)NCCC[C@H](NS(=O)(=O)c2ccc(-c3ccc(Cl)cc3)cc2)C(=O)O)CC1` [Example 75] are 4 nM and 20 nM.
The corresponding values for `C[C@H](NC(=O)OC(C)(C)C)C(=O)NCCC[C@H](NS(=O)(=O)c1ccc(-c2ccc(Cl)cc2)cc1)C(=O)O` [Example 53] are 6 nM and 30 nM.
Consider `CC(C)(CC(=O)O)CC(=O)NCCC[C@H](NS(=O)(=O)c1ccc(-c2ccc(Cl)cc2)cc1)C(=O)O` [Example 81], for which the IC50 in experiment [1] turned out to be 3 nM; in experiment [2], 30 nM.
The corresponding values for `O=C(NCCC[C@H](NS(=O)(=O)c1ccc(-c2ccc(Cl)cc2)cc1)C(=O)O)c1cc(F)cc(F)c1` [Example 93] are 4 nM and 20 nM.
The corresponding values for `CN(C)c1ccccc1C(=O)NCCC[C@H](NS(=O)(=O)c1ccc(-c2ccc(Cl)cc2)cc1)C(=O)O` [Example 137] are 7 nM and 20 nM.
The corresponding values for `CC(C)(C)OC(=O)NCCC[C@H](NS(=O)(=O)c1ccc(-c2ccccc2)cc1)C(=O)O` [Example 146] are 3 nM and 30 nM.
As for `O=C(O)[C@H](CCCN1C(=O)c2ccccc2S1(=O)=O)NS(=O)(=O)c1ccc(-c2ccc(Cl)cc2)cc1` [Example 134], the IC50 in experiment [1] was found to be 2 nM; in experiment [2] it was 5 nM.
Consider `Cc1oncc1C(=O)NCCC[C@@H](NS(=O)(=O)c1ccc(-c2ccc(Cl)cc2)cc1)C(=O)O` [Example 20], for which the IC50 amounted to 7 nM in experiment [1] and 40 nM in experiment [2].
In the case of `NC(=O)NCCC[C@@H](NS(=O)(=O)c1ccc(-c2ccc(Cl)cc2)cc1)C(=O)O` [Example 1, (R)-(4-Chlorobiphenylsulfonyl)citrulline], the IC50 was determined as 7 nM in experiment [1] and 50 nM in experiment [2].
The corresponding values for `N/C(=N\[N+](=O)[O-])NCCC[C@H](NS(=O)(=O)c1ccc(-c2ccc(Cl)cc2)cc1)C(=O)O` [Example 25] are 10 nM and 60 nM.
Regarding `O=C(NCCC[C@H](NS(=O)(=O)c1ccc(-c2ccc(Cl)cc2)cc1)C(=O)O)c1cnccn1` [Example 19], the IC50 in experiment [1] was found to be 5 nM; in experiment [2] it was 20 nM.
The corresponding values for `Cc1ccc(S(=O)(=O)NC(=N)NCCC[C@@H](NS(=O)(=O)c2ccc(-c3ccc(Cl)cc3)cc2)C(=O)O)cc1` [Example 22] are 80 nM and 80 nM.
The corresponding values for `Cn1cccc1C(=O)NCCC[C@H](NS(=O)(=O)c1ccc(-c2ccc(Cl)cc2)cc1)C(=O)O` [Example 154] are 9 nM and 30 nM.
`O=C(CC1CCCCC1)NCCC[C@H](NS(=O)(=O)c1ccc(-c2ccc(Cl)cc2)cc1)C(=O)O` [Example 108]: the results for the IC50 in experiment [1] and in experiment [2] were 5 nM and 20 nM, respectively.
The corresponding values for `N/C(=N\[N+](=O)[O-])NCCC[C@@H](NS(=O)(=O)c1ccc(-c2ccc(Cl)cc2)cc1)C(=O)O` [Example 26] are 7 nM and 60 nM.
The corresponding values for `O=C(NCCC[C@H](NS(=O)(=O)c1ccc(-c2ccc(Cl)cc2)cc1)C(=O)O)c1cccnc1` [Example 51] are 3 nM and 20 nM.
The corresponding values for `N#Cc1ccccc1C(=O)NCCC[C@H](NS(=O)(=O)c1ccc(-c2ccc(Cl)cc2)cc1)C(=O)O` [Example 135] are 8 nM and 30 nM.
Consider `O=C(NCCC[C@H](NS(=O)(=O)c1ccc(-c2ccc(Cl)cc2)cc1)C(=O)O)c1ccccc1F` [Example 88], for which the IC50 in experiment [1] was 3 nM; in experiment [2] it was 10 nM.
The corresponding values for `O=C(NCCC[C@H](NS(=O)(=O)c1ccc(-c2ccc(Cl)cc2)cc1)C(=O)O)c1ccc(Cl)cc1` [Example 90] are 5 nM and 20 nM.
Take `O=C(NCCC[C@H](NS(=O)(=O)c1ccc(-c2ccc(Cl)cc2)cc1)C(=O)O)c1ccncc1` [Example 127]: the IC50 was found to be 3 nM in experiment [1] and 20 nM in experiment [2].
The corresponding values for `O=C(NCCC[C@H](NS(=O)(=O)c1ccc(-c2ccc(Cl)cc2)cc1)C(=O)O)c1cccc(Cl)c1` [Example 91] are 5 nM and 30 nM.
The corresponding values for `O=C(NCCC[C@H](NS(=O)(=O)c1ccc(-c2ccc(Cl)cc2)cc1)C(=O)O)c1ccc2ncccc2c1` [Example 126] are 10 nM and 30 nM.
The corresponding values for `CC(=O)NCSC[C@@H](NS(=O)(=O)c1ccc(-c2ccc(Cl)cc2)cc1)C(=O)O` [Example 18] are 10 nM and 70 nM.
With `COc1ccc(C(=O)NCCC[C@H](NS(=O)(=O)c2ccc(-c3ccc(Cl)cc3)cc2)C(=O)O)cc1OC` [Example 52], the IC50 was determined as 10 nM in experiment [1] and 20 nM in experiment [2].
On to `NCCCC[C@H](NS(=O)(=O)c1ccc(-c2ccc(Cl)cc2)cc1)C(=O)O` [Example 12], for which the IC50 is 10 nM in experiment [1] and 60 nM in experiment [2].
